According to ChEMBL document CHEMBL2311360 (J Med Chem, 2013):
pIC50: −log10 of the molar value.

How the values were obtained:
HCT-116/VM46 = assay: Cytotoxicity against human vinblastine-resistant HCT116/VM46 cells assessed as growth inhibition after 72 hrs by phosphatase assay; format: functional, cell-based; settings: HCT-116/VM46, 72 h
L1210 = assay: Cytotoxicity against mouse L1210 cells assessed as growth inhibition after 72 hrs by phosphatase assay; format: functional, cell-based; settings: L1210, 72 h
HCT-116 = assay: Cytotoxicity against human HCT116 cells assessed as growth inhibition after 72 hrs by phosphatase assay; format: functional, cell-based; settings: HCT-116, 72 h
Tubulin (Sus scrofa) = Tubulin (Sus scrofa) (UniProt P02554+P02550); assay: Displacement of [3H]Vinblastine from pig tubulin at 7.2 x 10^-5 M after 60 mins; format: protein assay
Tubulin (Sus scrofa), sequence (P02550 whole entry, looked up): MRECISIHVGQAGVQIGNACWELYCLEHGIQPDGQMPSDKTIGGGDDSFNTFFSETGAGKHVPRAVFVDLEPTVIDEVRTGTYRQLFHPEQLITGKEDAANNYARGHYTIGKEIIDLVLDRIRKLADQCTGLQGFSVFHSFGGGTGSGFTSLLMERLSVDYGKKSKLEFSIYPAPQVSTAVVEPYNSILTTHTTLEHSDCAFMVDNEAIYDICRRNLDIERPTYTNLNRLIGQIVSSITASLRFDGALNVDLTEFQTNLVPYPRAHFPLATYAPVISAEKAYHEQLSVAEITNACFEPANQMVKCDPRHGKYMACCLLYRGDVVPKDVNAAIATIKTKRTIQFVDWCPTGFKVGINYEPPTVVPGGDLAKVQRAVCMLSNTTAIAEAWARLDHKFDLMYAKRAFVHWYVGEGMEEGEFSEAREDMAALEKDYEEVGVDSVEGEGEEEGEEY
Tubulin (Sus scrofa), sequence (P02554 whole entry, looked up): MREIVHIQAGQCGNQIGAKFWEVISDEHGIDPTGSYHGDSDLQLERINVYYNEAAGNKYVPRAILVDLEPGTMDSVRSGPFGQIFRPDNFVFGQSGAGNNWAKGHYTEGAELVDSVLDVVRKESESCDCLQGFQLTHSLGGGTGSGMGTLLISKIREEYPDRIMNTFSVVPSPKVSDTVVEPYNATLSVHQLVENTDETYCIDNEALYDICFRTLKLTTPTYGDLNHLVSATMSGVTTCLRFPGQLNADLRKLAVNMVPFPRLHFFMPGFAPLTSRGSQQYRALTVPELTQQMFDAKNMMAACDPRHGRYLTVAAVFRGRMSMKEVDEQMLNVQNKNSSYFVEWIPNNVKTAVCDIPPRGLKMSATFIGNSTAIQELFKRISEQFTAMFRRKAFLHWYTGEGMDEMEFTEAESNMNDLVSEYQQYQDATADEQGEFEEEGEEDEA

Row | Compound | pIC50 (HCT-116/VM46) | pIC50 (L1210) | pIC50 (HCT-116) | inhibition (Tubulin (Sus scrofa)) [%]
1 | CC[C@]1(O)C[C@H]2CN(CCc3c([nH]c4ccccc34)[C@@](C(=O)OC)(c3cc4c(cc3OC)N(C)[C@H]3[C@@](O)(C(=O)OC)[C@H](OC(C)=O)[C@]5(CC)CCN6CCC[C@]43[C@@H]65)C2)C1 | 6.35 | 8.14 | 8.19 | 48.4
2 | CC[C@]1(O)C[C@H]2CN(CCc3c([nH]c4ccccc34)[C@@](C(=O)OC)(c3cc4c(cc3OC)N(C)[C@@H]3[C@]45CCCN4CC=C[C@@](CC)(C[C@]3(O)C(=O)OC)[C@H]45)C2)C1 | 5.24 | 6.43 | 6.37 | 68.5
3 | CC[C@]1(O)C[C@H]2CN(CCc3c([nH]c4ccccc34)[C@@](C(=O)OC)(c3cc4c(cc3OC)N(C)[C@@H]3[C@]45CCN4CCC[C@@](CC)(C[C@]3(O)C(=O)OC)[C@H]45)C2)C1 | 5.40 | 6.18 | 6.17 | 
4 | CC[C@]1(O)C[C@H]2CN(CCc3c([nH]c4ccccc34)[C@@](C(=O)OC)(c3cc4c(cc3OC)N(C)[C@H]3[C@@](O)(C(=O)OC)[C@H](OC(C)=O)[C@]5(CC)CCCN6CC[C@]43[C@@H]65)C2)C1 | 5.35 | 6.24 | 6.43 | 77.4
5 | CC[C@]1(O)C[C@@H]2CN(CCc3c([nH]c4ccccc34)[C@@](C(=O)OC)(c3cc4c(cc3OC)N(C)[C@H]3[C@@](O)(C(=O)OC)[C@H](OC(C)=O)[C@]5(CC)C=CCN6CC[C@]43[C@@H]65)C2)C1 |  |  |  | 50
6 | CCC1=C[C@H]2CN(CCc3c([nH]c4ccccc34)[C@@](C(=O)OC)(c3cc4c(cc3OC)N(C)[C@H]3[C@@](O)(C(=O)OC)[C@H](OC(C)=O)[C@]5(CC)CCCN6CC[C@]43[C@@H]65)C2)C1 | 5.46 | 6.13 | 6.05 | 
7 | CC[C@]1(O)C[C@H]2CN(CCc3c([nH]c4ccccc34)[C@@](C(=O)OC)(c3cc4c(cc3OC)N(C)[C@@H]3[C@]45CCN4CC=C[C@@](CC)(C[C@]3(O)C(=O)OC)[C@H]45)C2)C1 | 6.18 | 7.22 | 7.22 | 
8 | CCC1=C[C@H]2CN(CCc3c([nH]c4ccccc34)[C@@](C(=O)OC)(c3cc4c(cc3OC)N(C)[C@H]3[C@@](O)(C(=O)OC)[C@H](OC(C)=O)[C@]5(CC)CCN6CC[C@]43[C@@H]65)C2)C1 | 5.15 | 6.15 | 6.20 | 
9 | CC[C@]1(O)C[C@H]2CN(CCc3c([nH]c4ccccc34)[C@@](C(=O)OC)(c3cc4c(cc3OC)N(C)[C@H]3[C@@](O)(C(=O)OC)[C@@H](OC(C)=O)[C@]5(CC)C=CCN6CC[C@]43[C@@H]65)C2)C1 | 5.08 | 7.12 | 7.10 | 
10 | CC[C@]1(O)C[C@H]2CN(CCc3c([nH]c4ccccc34)[C@@](C(=O)OC)(c3cc4c(cc3OC)N(C)[C@@H]3[C@]45CCCN4CCC[C@@](CC)(C[C@]3(O)C(=O)OC)[C@@H]45)C2)C1 | 6.05 | 7.26 | 7.10 | 
11 | CC[C@]1(O)C[C@H]2CN(CCc3c([nH]c4ccccc34)[C@@](C(=O)OC)(c3cc4c(cc3OC)N(C)[C@H]3[C@@](O)(C(=O)OC)[C@@H](OC(C)=O)[C@]5(CC)CCN6CCC[C@]43[C@@H]65)C2)C1 | 5.12 | 6.22 | 6.17 | 
12 | CCC1=C[C@@H]2CN(C1)Cc1c([nH]c3ccccc13)[C@@](C(=O)OC)(c1cc3c(cc1OC)N(C)[C@H]1[C@@](O)(C(=O)OC)[C@H](OC(C)=O)[C@]4(CC)C=CCN5CC[C@]31[C@@H]54)C2 [VINORELBINE] | 6.22 | 7.19 | 7.12 | 
13 | CC[C@]1(O)C[C@H]2CN(CCc3c([nH]c4ccccc34)[C@@](C(=O)OC)(c3cc4c(cc3OC)N(C)[C@H]3[C@@](O)(C(=O)OC)[C@H](OC(C)=O)[C@]5(CC)CCN6CC[C@]43[C@@H]65)C2)C1 | 5.11 | 6.25 | 7.10 | 
14 | CC[C@]1(O)C[C@H]2CN(CCc3c([nH]c4ccccc34)[C@@](C(=O)OC)(c3cc4c(cc3OC)N(C)[C@@H]3[C@]45CCCN4CCC[C@@](CC)(C[C@]3(O)C(=O)OC)[C@H]45)C2)C1 | < 5.00 | 5.24 | 5.13 | 
15 | CC[C@]1(O)C[C@H]2CN(CCc3c([nH]c4ccccc34)[C@@](C(=O)OC)(c3cc4c(cc3OC)N(C)[C@@H]3[C@]45CCCN4CC=C[C@@](CC)(C[C@]3(O)C(=O)OC)[C@@H]45)C2)C1 | 6.14 | 7.19 | 7.00 | 
